Values of other authors, collected in US20090162858A1, “Orthogonal chemical inducer of dimerization” (priority 2007, published 2009).

System: wild type Saccrharomyces cerevisiae
Settings: [Game, 1975]

SMILES: CN(Cc1cnc2nc(N)nc(N)c2n1)c1ccc(C(=O)N[C@@H](CCC(=O)O)C(=O)O)cc1 [Methotrexate]
- growth of wild type yeast: inhibits growth

SMILES: COc1cc(Cc2cnc(N)nc2N)cc(OC)c1OC [Trimethoprim, 2,4-diamino-5-(3,4,5-trimethoxybenzyl)pyrimidine]
- growth of wild type yeast: does not
